Test results published in publication PMC5128750, “Structure–Activity Relationship Studies Using Natural and Synthetic Okadaic Acid/Dinophysistoxin Toxins” (Marine Drugs, 2016).
Where “and” joins values, the source holds several entries; their conditions need not be identical. Equal values may be shown once. Read-outs that look alike come from different tables or passages of the source.

Key:
[1] = tested on: Jurkat T lymphocyte cells; assay: cells; assay type: cell-based, human
PP2A [2] = target: T1, PP2A (Homo sapiens, UniProt P67775); assay: biochemical; assay type: biochemical
T1 construct: purified PP2A (EMD Millipore Corporation, Darmstadt, Germany, cat. #14-111; human red blood cells); purchased EMD Millipore Corporation 14-111; host or cells: human red blood cells (tissue-purified)
T1 sequence (P30153 2-589): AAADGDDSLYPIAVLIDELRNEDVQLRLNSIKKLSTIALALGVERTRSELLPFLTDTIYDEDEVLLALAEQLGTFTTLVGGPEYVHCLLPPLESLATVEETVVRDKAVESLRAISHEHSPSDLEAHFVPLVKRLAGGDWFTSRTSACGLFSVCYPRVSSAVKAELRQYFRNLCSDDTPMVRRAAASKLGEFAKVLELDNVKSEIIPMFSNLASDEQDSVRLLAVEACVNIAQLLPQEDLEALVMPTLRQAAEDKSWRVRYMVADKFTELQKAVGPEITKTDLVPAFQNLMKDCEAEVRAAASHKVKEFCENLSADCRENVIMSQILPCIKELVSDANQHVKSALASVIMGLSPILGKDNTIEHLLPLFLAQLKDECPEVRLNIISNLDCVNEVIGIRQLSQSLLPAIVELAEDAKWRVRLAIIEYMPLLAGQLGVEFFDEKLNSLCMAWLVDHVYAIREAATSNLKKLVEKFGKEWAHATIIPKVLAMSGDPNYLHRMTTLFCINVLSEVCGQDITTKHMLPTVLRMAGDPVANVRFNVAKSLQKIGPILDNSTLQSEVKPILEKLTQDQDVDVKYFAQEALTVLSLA
T1 sequence (P67775 whole entry): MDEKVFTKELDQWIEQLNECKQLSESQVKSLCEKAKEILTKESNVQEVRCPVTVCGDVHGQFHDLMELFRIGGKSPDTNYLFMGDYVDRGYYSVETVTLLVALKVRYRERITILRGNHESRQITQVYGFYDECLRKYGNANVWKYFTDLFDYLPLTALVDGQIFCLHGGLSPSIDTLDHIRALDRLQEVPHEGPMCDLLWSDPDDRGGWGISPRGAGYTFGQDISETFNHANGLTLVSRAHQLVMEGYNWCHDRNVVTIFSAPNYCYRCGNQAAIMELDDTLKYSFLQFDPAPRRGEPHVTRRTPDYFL

PP1 = assay type: biochemical, rabbit
PP2a [3] = conditions: relative to OA, using data from Aune et al. and Takai et al.; cited from earlier work
mice = conditions: relative to OA, cited from earlier work; for TEF (European Food Safety Authority): based on LD50 values from exposed mice
PP5 [4] = target: T2, PP5 (Homo sapiens, UniProt P53041); assay: PP5 inhibition, fluorimetric DiFMUP assay; assay type: biochemical; set-up: purchased EMD Millipore Corporation 14-778; host or cells: E. coli; conditions: for IC50: PP5, DiFMUP 50 μM; for Rel. Potency / TEF: PP5, relative to OA
T2 sequence (P53041 1-499): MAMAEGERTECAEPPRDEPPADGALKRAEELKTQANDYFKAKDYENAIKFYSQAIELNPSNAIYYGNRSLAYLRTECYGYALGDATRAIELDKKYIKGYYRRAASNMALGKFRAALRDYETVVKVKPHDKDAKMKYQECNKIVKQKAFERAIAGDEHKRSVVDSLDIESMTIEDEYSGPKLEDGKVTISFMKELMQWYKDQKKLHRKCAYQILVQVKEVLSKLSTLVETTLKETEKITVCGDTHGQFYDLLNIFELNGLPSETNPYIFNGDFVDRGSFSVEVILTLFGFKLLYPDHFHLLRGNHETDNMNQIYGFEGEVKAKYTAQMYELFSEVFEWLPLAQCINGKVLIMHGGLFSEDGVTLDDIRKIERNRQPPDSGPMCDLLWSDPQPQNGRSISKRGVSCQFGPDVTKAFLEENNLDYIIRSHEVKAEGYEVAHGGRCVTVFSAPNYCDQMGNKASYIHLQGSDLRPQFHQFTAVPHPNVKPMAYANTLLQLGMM
Method: Figure 3 Effect of various DSP toxins on protein phosphatase activity. The activities of protein phosphatases (A) PP2a, (B) PP1, and (C) PP5 were assessed in the presence of various concentrations of natural OA, natural DTX1, natural DTX2, synthetic DTX2, or synthetic 2-epi-DTX2. All data (mean ± SE; n = 3 or 4) were normalized to the control. […], variable slope, non-linear dose-response analysis was performed and IC50 and 95% confidence interval values were calculated (Table 2).
Preliminary studies were conducted by Millipore (EMD Millipore Corporation, Darmstadt, Germany) using their PhosphataseProfiler that assessed the activities of 21 human and yeast phosphatases in the presence of DTX2. Phosphatase sensitivities to DTX2 were more extensively characterized using 96-well fluorescence-based assays in the presence of various natural and synthetic OA/DTXs. Briefly, the assay tests the ability of toxins to inhibit the activity of purified PP2A (EMD Millipore Corporation, Darmstadt, Germany, cat. #14-111; human red blood cells), purified PP1 (EMD Millipore Corporation, Darmstadt, Germany, cat. #14-110; rabbit skeletal muscle), or purified PP5 (EMD Millipore Corporation, Darmstadt, Germany, cat. #14-778; recombinant enzyme expressed in E. coli cells) against the fluorimetric substrate, 6,8-difluro-4-methyl umbelliferyl phosphate (DiFMUP; 50 μM final) (Invitrogen ThermoFisher Scientific, Waltham, MA, USA, cat. #D6567). DiFMUP solutions were preincubated with toxins or vehicle controls (all containing 1% DMSO final) for 10 min prior to addition of one of the PP enzymes (0.4, 0.4, and 0.02 units/well for PP2a, PP1, and PP5). PP2a assays were performed in Tris-HCl (40 mM, pH 8.4), MgCl2 (34 mM), EDTA (4 mM), and DTT (4 mM), PP1 assays were performed in Tris-HCl (100 mM, pH 7.5), MnCl2 (0.5 mM), EDTA (0.2 mM), DTT (4 mM) and BSA (0.4 mg/mL), and PP5 assays were performed in HEPES (57 mM, pH 7.2), NaCl (150 mM), EDTA (1 mM), MnCl2 (1 mM), DTT (0.167 mM), glycerol (0.83%), BSA (0.167 mg/mL), Brij-35 (0.002%) (EMD Millipore Corporation, Darmstadt, Germany, pers. comm.). All reactions (50 μL) were performed in black, 96-well, half area plates (Corning Incorporated, Corning, NY, USA) for 2 h at 35 °C with 5 s orbital shaking (ca. 600 rpm) just prior to each reading (every 2 min). PP activity was determined by measuring the fluorescence (excitation 360 nm, emission 470 nm) of each well using a fluorometric plate reader (Fluostar, BMG Lab Technologies, Ortenberg, Germany). All data (mean ± SE, n ≥ 3) are presented as normalized percentages relative to vehicle controls (100%). IC50 determinations were calculated using four-parameter, variable slope, non-linear regression analysis (GraphPad Prism, ver. 5.0c, San Diego, CA, USA).

PP1α = target: T3, PP1α (Homo sapiens, UniProt P62136); assay type: biochemical; conditions: 200 nM, n = 2
T3 construct: purchased EMD Millipore Corporation (PhosphataseProfiler service)
T3 sequence (P62136 whole entry): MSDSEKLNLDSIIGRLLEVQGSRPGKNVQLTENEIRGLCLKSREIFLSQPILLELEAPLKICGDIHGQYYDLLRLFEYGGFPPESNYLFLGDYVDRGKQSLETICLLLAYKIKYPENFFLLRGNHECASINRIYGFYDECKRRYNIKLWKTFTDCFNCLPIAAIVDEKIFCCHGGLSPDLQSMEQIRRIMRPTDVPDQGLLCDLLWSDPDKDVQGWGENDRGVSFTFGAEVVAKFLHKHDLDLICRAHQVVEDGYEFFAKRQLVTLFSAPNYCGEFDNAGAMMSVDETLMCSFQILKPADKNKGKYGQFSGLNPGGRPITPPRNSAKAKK

PP2A [5] = target: T1, PP2A; assay type: biochemical; conditions: 200 nM, n = 2
[6] = tested on: CD45, DUSP22, HePTP, LMPTP-A, LMPTP-B, MKP5, PTPMEG1, PTP-MEG2, PTP-1B, PTPN22, PTPβ, RPTPμ, SHP-1, SHP-2, TCPTP, TMDP, VHR, YopH; assay type: biochemical, human and yeast; conditions: 200 nM, n = 2
PP5 [7] = target: T2, PP5; assay type: biochemical; set-up: purchased EMD Millipore Corporation (PhosphataseProfiler service); conditions: 200 nM, n = 2

Compound	Rel. Potency (as per 48 h Data) / TEF [1]	EC50 ([1]; Homo sapiens, Jurkat, 24 h) [nM]	EC50 ([1]; Homo sapiens, Jurkat, 48 h) [nM]	EC50 ([1]; Homo sapiens, Jurkat, 72 h) [nM]	IC50 (PP2A [2])	Rel. Potency / TEF (PP2A [2])	IC50 (PP1) [nM]	Rel. Potency / TEF (PP1)	TEF by Huhn et al. (PP2a [3])	TEF (European Food Safety Authority) (mice)	IC50 (PP5 [4])	Rel. Potency / TEF (PP5 [4])	Inhibition of phosphatase activity (PP1α)	Inhibition of phosphatase activity (PP2A [5])	Inhibition of phosphatase activity [6]	TEF proposed by Aune et al. (mice)	Inhibition of phosphatase activity (PP5 [7])	IC50 (PP2A [2]; IC50)	EC50 [1]
C=C1C(O)C2OC3(CCC(C=CC(C)C4CC(C)=CC5(OC(CC(C)(O)C(=O)O)CCC5O)O4)O3)CCC2OC1C(O)CC(C)C1OC2(CCC1C)OCCCC2C (centres unmarked) [nat. DTX1, Dinophysistoxin-1]	0.9 and 0.87	24.6	22.2	11.4	0.31 nM and 0.306 nM	1.5 and 1.523	34.8	0.72 and 0.724	1.58	1	1.3 nM	1.8 and 1.769							
C=C1C(O)C2OC3(CCC(C=CC(C)C4CC(C)=CC5(OC(CC(C)(O)C(=O)O)CCC5O)O4)O3)CCC2OC1C(O)CC(C)C1CCCC2(OCCCC2C)O1 (centres unmarked) [nat. DTX2, Dinophysistoxin-2]	1.6 and 1.58				0.99 nM and 0.987 nM	0.472	76.4	0.330	0.48	0.6	5.2 nM and 5.25 nM	0.438	inhibited	inhibited	only PP1α, PP2a, and PP5 were inhibited	0.6	inhibited		
C=C1[C@@H](O)[C@@H]2O[C@]3(CC[C@H](/C=C/[C@@H](C)[C@@H]4CC(C)=C[C@@]5(O[C@H](C[C@@](C)(O)C(=O)O)CC[C@H]5O)O4)O3)CC[C@H]2O[C@@H]1[C@@H](O)C[C@H](C)[C@H]1O[C@@]2(CCCCO2)CC[C@H]1C [nat. OA, Okadaic Acid]	1.000	32.8	19.5	9.16		1.000	25.2	1.000		1	2.3 nM	1.000						0.47 nM and 0.466 nM	
C=C1C(O)C2OC3(CCC(C=CC(C)C4CC(C)=CC5(OC(CC(C)(O)C(=O)O)CCC5O)O4)O3)CCC2OC1C(O)CC(C)C1CCCC2(OCCCC2C)O1 (stereo not drawn) [syn. 2-epi-DTX2, 2-epi-dinophysistoxin-2]	0.004				137 nM	0.003	3110	0.008			541 nM	0.004							4750 nM and 4260 nM and 3740 nM
C=C1C(O)C2OC3(CCC(C=CC(C)C4CC(C)=CC5(OC(CC(C)(O)C(=O)O)CCC5O)O4)O3)CCC2OC1C(O)CC(C)C1CCCC2(OCCCC2C)O1 (stereo not drawn) [syn. DTX2, Dinophysistoxin-2]	1.1 and 1.07				1.35 nM	0.345	82.6	0.305			4 nM and 3.95 nM	0.582							21.8 nM and 18.2 nM and 15.4 nM
